Data on one compound can be found in US20060252828A1 (priority 2003, published 2006).

“And” between values parts separate entries of the source, which are not always exact repeats. Equal entries are not always repeated.

In this assay the test system is Meloidogyne spp (Mixture of Meloidogyne incognita and Meloidogyne hapla). The conditions noted are these: in vivo.

On to `CN1CSC(=S)N(C)C1` [dazomet, 3,5-dimethyltetrahydro-2H-1,3,5-thiadiazine-2-thione], for which the Observed efficacy was 2% and 0%.
